# Assays:
# [1] = test system: LO2 cells; assay: Cell viability of LO2 cells exposed to APAP (MTT), liver injury model; assay type: cell-based, human
# Procedure: Cell culture and model construction: The experimental LO2 cells were provided by Shanghai Fuheng Biotechnology Co., Ltd. (Shanghai, China). Cells induced by APAP formed a cell model of liver injury. The cells were cultured in RPMI 1640 medium containing 100 units of penicillin, 100 μg/mL streptomycin, and 10% FBS at 37 °C and 5% CO2 atmosphere. The cells were changed daily and passaged when the contact reached 80%. Cells in the logarithmic growth phase were seeded onto a 96-well plate at a density of 4000 cells per well and subsequently incubated at 37 °C in an atmosphere containing 5% CO2. After 24 h of pre-incubation, cells were exposed to APAP at concentrations of 2, 4, 8, and 16 mM, followed by continued culture for the designated time periods. Subsequently, 20 μL of MTT solution (5 mg/mL, dissolved in PBS) was added to each well and incubated for an additional 4 h at 37 °C. To dissolve the formed formazan crystals, 200 μL of DMSO was added. The absorbance values were then measured at 490 nm using a microplate reader ([sequence] 200 PRO, Tecan, Männedorf, Switzerland). The cell survival rates at different APAP concentrations were calculated, and a cell survival rate below 60% was considered indicative of successful model construction. The specific formula employed for calculating the cell survival rate is provided below. […] Cell viability=AAPAP−ABlank/AControl−ABlank
# [2] = Pharmacokinetics after oral gavage in rats (plasma, HPLC); assay type: in vivo, Sprague Dawley rats; conditions: male, Sprague Dawley, rat, po, 20 mg/kg
# Text: Nine male Sprague Dawley rats, each weighing approximately 250 g ± 25 g, were meticulously selected as the experimental subjects (sourced from Beijing SPF Biotechnology Co., Ltd., (Beijing, China) SPF grade, licensed under SCXK (Jing) 2019-0010). The experimental protocol was approved by the Institutional Animal Care and Use Committee of Hebei Medical University and conformed to the Guide for Care and Use of Laboratory Animals (approval NO. 2023040). Prior to and throughout the experimental period, the rats were provided with unrestricted access to standard rodent chow and water. The housing facilities for these animals adhered strictly to the standards outlined by the International Association for the Evaluation and Certification of Laboratory Animal Care, ensuring optimal conditions for the animals’ wellbeing. The experimental feeding environment was maintained at a temperature of 22–24 °C, with a relative humidity of 50 ± 5%, and a 12-h light/dark cycle to mimic natural diurnal rhythms. The rats were randomly allocated into three distinct groups, with an equal distribution of three rats per group. MONO, DIAM, and MAGN were administered orally at a dose of 20 mg/kg. The amount administered was calculated as the contents of glycyrrhizinate or magnesium isoglycyrrhizinate. Each compound was dissolved in 0.5% carboxymethylcellulose sodium (CMC-Na) solution and delivered immediately to rats via gastric gavage. Blood samples of 0.2 mL were obtained at various time points post-administration (0.5, 1, 2, 4, 8, 12, 24, and 48 h) and centrifuged at 1500× g for 10 min at 4 °C, allowing for the separation of plasma, which was collected and stored at −20 °C for subsequent analysis.
# Fifty microliters (50 μL) of plasma was obtained and spiked with 10 μL of dipyridamole solution as an internal standard. Subsequently, 100 μL of acetonitrile was added to precipitate the proteins, followed by vortex mixing. The mixture was centrifuged at 6000× g for 10 min at 4 °C. The resulting precipitate was discarded, and the supernatant was evaporated to dryness under a nitrogen stream at 60 °C. The residual precipitate was redissolved in 200 μL of mobile phase, vortexed for 5 min, and sonicated for 30 s. Following this, the solution was centrifuged again at 6000× g for 10 min at 4 °C. Then, 10 μL of the supernatant was injected and the chromatogram was recorded for analysis.
# HPLC was employed using the Agilent 1200 series system (Agilent Technologies, Wilmington, DE, USA) with Agilent Chemstation LC B.04.03 Software. The separation was on a Venusil MP C18(2) chromatographic column (150 × 4.6 mm, 5 μm, Agela Technologies, Tianjin, China) based on the United States Pharmacopeia with adjustments performed. Isocratic elution with a mixture of 40 volumes of acetonitrile and 60 volumes of water (containing 0.5% acetic acid) was used. The flow rate and temperature were 1.0 mL/min and 40 °C, respectively. A volume of 10 μL of the sample was injected under 254 nm for analyses and with three repetitions for each test (n = 3). All the pharmacokinetic data were calculated by Drug and Statistics (DAS) 2.0 software (Mathematical Pharmacology Professional Committee of China, Shanghai, China) and presented as mean ± SD. The main parameters such as the area under the curve (AUC), the maximum plasma concentration (Cmax), the time to Cmax (Tmax), and elimination half-life (t1/2) were tabulated.
# [3] = test system: LO2 cells; assay: Hepatocyte protection rate in APAP-induced LO2 cells (MTT); assay type: cell-based, human; conditions: 16 mM APAP, 200, 400 and 600 μM
# Procedure: Assessment of hepatocyte-protective effects: Cells in the logarithmic growth phase were seeded onto a 96-well plate at a density of 4000 cells per well, followed by incubation at 37 °C in an atmosphere containing 5% CO2. After 24 h of incubation, cells were treated with 16 mM APAP, followed by the addition of MONO, DIAM, and MAGN at three escalating concentrations (200, 400, and 600 μM for each compound). The cell survival rate was quantitatively evaluated using MTT method. The protective efficacy of the compounds was then calculated employing the formula outlined below.(1) Hepatocytes protection rate=AGlycyrrhizinate−AAPAP/Anormal−AAPAP×1
SMILES,cytotoxicity towards LO2 cells ([1]; APAP 2-16 mM),"cell survival rate ([1]; APAP concentrations exceeding 16 mM, 24 h of APAP exposure)",half-life ([2]; n = 3),"AUC(0-t) ([2]; n = 3, read-out: AUC0-t)","Cmax ([2]; n = 3, read-out: Cmax)","Tmax ([2]; n = 3, read-out: Tmax)",hepatocyte protection (therapeutic effect) [3]
"CC(=O)Nc1ccc(O)cc1 [APAP, acetaminophen]",concentration-dependent cytotoxicity,below 60%,,,,,
"CC1(C)[C@@H](O[C@H]2O[C@H](C(=O)O)[C@@H](O)[C@H](O)[C@H]2O[C@@H]2O[C@H](C(=O)O)[C@@H](O)[C@H](O)[C@H]2O)CC[C@]2(C)[C@H]3C(=O)C=C4[C@@H]5C[C@@](C)(C(=O)O)CC[C@]5(C)CC[C@@]4(C)[C@]3(C)CC[C@@H]12 [MONO, monoammonium glycyrrhizinate]",,,10.8 ± 0.66 h,320 ± 78.6 µg·h/mL,15000 ± 3640 ng/mL,8 h,concentration-dependent therapeutic effects
